Molecular target: T1, TcCaNA2 (Trypanosoma cruzi, UniProt G9B7N4)
T1 construct: gene CaNA2; tag cleavage not mentioned; primers from CL Brener XM_816360.1
Assay: colorimetric phosphatase assay, absorbance at […] nm
Assay type: biochemical
Details: 80 mM p-NPP, 1 µg enzyme, 15 min at 30 °C; 1 mM MnCl2 or NiCl2 (also CaCl2, MgCl2)

T1 sequence (G9B7N4 entry or part of it): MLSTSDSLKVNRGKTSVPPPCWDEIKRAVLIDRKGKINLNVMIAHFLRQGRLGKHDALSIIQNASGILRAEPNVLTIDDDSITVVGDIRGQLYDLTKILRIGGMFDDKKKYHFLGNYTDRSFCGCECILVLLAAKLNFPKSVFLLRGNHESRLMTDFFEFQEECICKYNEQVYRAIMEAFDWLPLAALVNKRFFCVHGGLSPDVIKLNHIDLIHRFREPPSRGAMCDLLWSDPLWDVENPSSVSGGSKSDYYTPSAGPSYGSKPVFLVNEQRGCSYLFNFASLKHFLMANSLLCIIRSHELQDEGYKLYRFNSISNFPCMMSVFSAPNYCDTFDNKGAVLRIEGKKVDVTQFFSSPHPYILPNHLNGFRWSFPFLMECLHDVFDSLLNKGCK

SMILES: O=[N+]([O-])c1ccc(OP(=O)(O)O)cc1 [p-nitrophenyl phosphate]
- colorimetric phosphatase assay, absorbance at 405 nm: The recombinant protein TcCaNA2 showed enzymatic activity using p-NPP as substrate

Reference: article PMC3907409, “A Cytoplasmic New Catalytic Subunit of Calcineurin in Trypanosoma cruzi and Its Molecular and Functional Characterization” (PLoS Neglected Tropical Diseases, 2014)
